According to publication PMC8107043 (Bioorganic & Medicinal Chemistry Letters, 2021):

Tests used:
[1] = molecular target: SARS-CoV-2 PLpro (Severe acute respiratory syndrome coronavirus 2, UniProt P0DTD1); test: Papain-like protease; assay type: biochemical; conditions: read-out: Percent inhibition against PLpro, 100 µg/mL, mean ± SEM of 3 replicas
[2] = molecular target: SARS-CoV-2 M^pro (Severe acute respiratory syndrome coronavirus 2, UniProt P0DTD1); assay type: biochemical; conditions: read-out: IC50 against M^pro; dose-response 25-200 µg/mL
[3] = system: normal human fibroblast cells (HDF); test: Cell viability MTT assay; assay type: cell-based; conditions: in words
[4] = system: SARS-CoV-2; conditions: in words; cited from earlier work

For `CCOC(=O)C(Cc1c[nH]c2ccccc12)NC(=O)CCC(=O)Nc1ccc(S(N)(=O)=O)cc1` (stereo not drawn) [Compound 2], the inhibition at 100 µg/mL [1] was ≤ 40%.
For `COc1cc(C(NC2=NC(=O)C(CC(=O)Nc3ccc(C(=O)O)cc3)S2)c2c(O)[nH]c(=O)[nH]c2=O)ccc1O` (stereo not drawn) [Compound 7], the IC50 [2] was 450 nM and the “toxicity on mammalian cells” value [3] was “no toxicity”.
In the case of `O=C(CSc1nnc2c(n1)[nH]c1ccccc12)Nc1cccc(S(=O)(=O)N2CCOCC2)c1` [Compound 8], the inhibition at 100 µg/mL [1] is reported as ≤ 40%.
For `COc1ccc(/C=C\C(=O)NC(=S)Nc2ccc(S(=O)(=O)NC(N)=O)cc2)cc1OC` [Compound 9], the inhibition at 100 µg/mL [1] was ≤ 40%.
In the case of `COc1cc(CC(C)NCc2cc(NC(=O)c3ccccn3)cc(C(=O)N(C)C)c2)ccc1O` (stereo not drawn) [Compound 12], the inhibition at 100 µg/mL [1] is reported as ≤ 40%.
With `N=C(N/N=C/c1ccccc1O)c1nonc1NCNc1nonc1C(=N)N/N=C/c1ccccc1O` [Compound 13] the “toxicity on mammalian cells” value [3] was “no toxicity”.
For `Cc1cccc(C)c1OCC(=O)N[C@@H](Cc1ccccc1)[C@@H](O)C[C@H](Cc1ccccc1)NC(=O)[C@H](C(C)C)N1CCCNC1=O` [lopinavir], the “outcome in clinical trial as anti-SARS-CoV-2 inhibitors” value [4] is listed as “failed in the clinical trial”.
In the case of `CC(C)c1nc(CN(C)C(=O)N[C@H](C(=O)N[C@@H](Cc2ccccc2)C[C@H](O)[C@H](Cc2ccccc2)NC(=O)OCc2cncs2)C(C)C)cs1` [ritonavir], the “outcome in clinical trial as anti-SARS-CoV-2 inhibitors” value [4] is listed as “failed in the clinical trial”.
